Like-named read-outs stand apart in the source and are kept apart here. Marks after values point to notes of the source that are not given here.
How the values were obtained:
[1] = LogP by HPLC on reversed phase columns (EEC directive 79/831 Annex V.A8); format: physicochemical; details: for chromatographic logP: reversed phase HPLC column
Experimental: [table] If more than one Log P value is available within the same method, all the values are given and separated by “+”. […] Lambda-max-values were determined using UV-spectra from 200 nm to 400 nm and the peak values of the chromatographic signals.

Phakosporra pachirrhizi = assay: Example D: fungicidal activity against Phakosporra pachirrhizi (spore germination, 96-well imaging); format: cell-based; details: 30 ppm of active ingredient; wild-type spores, 4 hours at 21° C.; read-out: efficacy (inhibition of the fungal germination)
Experimental: Example D: Fungicidal Activity Against Phakosporra pachirrhizi
Cryo-conserved wild-type spores of the biotroph Phakosporra pachirrhizi are humidified in dedicated chamber overnight at 18° C. in the dark. The next day, a solution of spores at 7×10^3 sp/ml is prepared in a water based growth medium (DH2O+0.2 mM MOPS at pH 7+0.01% Tween 20) and spores are distributed in a 96-MTPS (final volume of 200 μL per well) thanks to a dispenser robot. Each molecule is tested at 10 doses (from 30 to 0.002 ppm final concentration) and accordingly 1.2 μL of each dilution is transferred in dedicated well to end-up with a final concentration of 0.6% DMSO. Wild-type spores and molecules are incubated for 4 hours at 21° C., and 6 images par well are then acquired with Transmitted Light images (Image Xpress Micro microscope, Molecular Devices, Objective 10λ, 6 images per well). Detection and quantification of the number of germinated spores per image is performed with a dedicated in-house developed algorithm (MetaXpress software, Molecular Devices).

[2] = tested on: Colletotrichum lindemuthianum; assay: Example E: Colletotrichum lindemuthianum in vitro cell test; format: cell-based; details: 144 h, 20 ppm of active ingredient, liquid culture, 6 days incubation, read-out: efficacy (inhibition of fungal growth)
Experimental: Example E: Colletotrichum lindemuthianum In Vitro Cell Test
• Solvent: DMSO Culture medium: 14.6 g anhydrous D-glucose (VWR), 7.1 g Mycological Peptone (Oxoid), 1.4 g granulated Yeast Extract (Merck), QSP 1 liter • Inoculum: spores suspension
Active ingredients were solubilized in DMSO and the solution used to prepare the required range of concentrations. The final concentration of DMSO used in the assay was 1%.
A spore suspension of C. lindemuthianum was prepared and diluted to the desired spore density.
The active ingredients were evaluated for their ability to inhibit spores germination and mycelium growth in liquid culture assay. The compounds were added in the desired concentration to the culture medium with spores. After 6 days incubation, fungi-toxicity of compounds was determined by spectrometric measurement of mycelium growth. Inhibition of fungal growth was determined by comparing the absorbance values in wells containing the active ingredient with the absorbance in control wells without active ingredient.

[3] = method [a]: LC-UV, acidic range, 0.1% formic acid in water and acetonitrile as eluent

Structure (SMILES) | LogP [1] | also measured
Nc1ccc2cc(-c3noc(C(F)(F)F)n3)ccc2c1 [Compound I-042] | 3.47^[a] | –
CCn1c(C)nc2cc(-c3noc(C(F)(F)F)n3)ccc21 [Compound I-045] | 1.60^[a] | –
FC(F)(F)c1nc(-c2ccc3nc[nH]c3c2)no1 [Compound I-002] | 1.46^[a] | –
Fc1cc2[nH]ncc2cc1-c1noc(C(F)(F)Cl)n1 [Compound I-062] | 2.78^[a] | –
COCCOC(=O)N(OC)C1CCCc2cc(-c3noc(C(F)(F)F)n3)ccc21 (centres unmarked) [Compound I-025] | 4.27^[a] | –
O=C(Nc1ccc2cc(-c3noc(C(F)(F)F)n3)ccc2c1)C(F)(F)F [Compound I-057] | – | LogP [1, 3]: 4.27^[a]
FC(F)(F)c1nc(-c2ccc3cnn(Cc4ccccc4)c3c2)no1 [Compound I-007] | 4.34^[a] | –
FC(F)(Cl)c1nc(-c2ccc3nc[nH]c3c2)no1 [Compound I-041] | 1.57^[a] | –
Fc1cc2[nH]ncc2cc1-c1noc(C(F)(F)F)n1 [Compound I-061] | 2.61^[a] | –
CON(C(=O)C1CC1)C1CCCc2cc(-c3noc(C(F)(F)F)n3)ccc21 (centres unmarked) [Compound I-019] | 4.44^[a] | –
CCC(=O)N1CCc2ccc(-c3noc(C(F)(F)F)n3)cc2C1 [Compound I-031] | 3.11^[a] | –
O=C(O)c1cn2cc(-c3noc(C(F)(F)F)n3)ccc2n1 [Compound I-040] | 1.41^[a] | –
COC(=O)N(OC)C1CCCc2cc(-c3noc(C(F)(F)F)n3)ccc21 (centres unmarked) [Compound I-024] | 4.34^[a] | –
CCC(=O)Nc1cc2cc(-c3noc(C(F)(F)F)n3)ccc2cn1 [Compound I-052] | 3.33^[a] | –
FC(F)(F)c1nc(-c2ccc3ncc(Br)n3c2)no1 [Compound I-036] | 2.75^[a] | –
CCC(=O)N1CCCc2cc(-c3noc(C(F)(F)F)n3)ccc21 [Compound I-030] | 3.68^[a] | –
FC(F)(F)c1nc(-c2ccc3cn[nH]c3c2)no1 [Compound I-006] | 2.70^[a] | –
CON(C(C)=O)C1CCCc2cc(-c3noc(C(F)(F)F)n3)ccc21 (centres unmarked) [Compound I-020, N-Methoxy-N-{6-[5-(trifluoromethyl)-1,2,4-oxadiazol-3-yl]-1,2,3,4-tetrahydronaphthalen-1-yl}acetamide] | – | chromatographic logP [1, 3]: 3.79; inhibition at 30 ppm (Phakosporra pachirrhizi): 70 to 79%; inhibition at 20 ppm [2]: 90 to 100%
CCn1cc2ccc(-c3noc(C(F)(F)F)n3)cc2n1 [Compound I-015] | 3.21^[a] | –
Nc1cc2cc(-c3noc(C(F)(F)F)n3)ccc2cn1 [Compound I-055] | 2.31^[a] | –
CCOC(=O)c1cn2cc(-c3noc(C(F)(F)F)n3)ccc2n1 [Compound I-039] | 2.59^[a] | –
O=C(Cc1ccccc1)N1CCc2cc(-c3noc(C(F)(F)F)n3)ccc2C1 [Compound I-050] | 3.83^[a] | –

Structure (SMILES) | LogP [1] | also measured
CCn1ncc2cc(-c3noc(C(F)(F)F)n3)ccc21 [Compound I-011] | 3.67^[a] | –
CC(=O)Nc1ccc(-c2noc(C(F)(F)F)n2)c2c1CCO2 [Compound I-053] | 2.32^[a] | –
Cn1cnc2ccc(-c3noc(C(F)(F)F)n3)cc21 [Compound I-004] | 1.67^[a] | –
COC(=O)N1CCc2ccc(-c3noc(C(F)(F)Cl)n3)cc2C1 [Compound I-026] | 3.83^[a] | –
CCC(=O)N1CCCc2cc(-c3noc(C(F)(F)Cl)n3)ccc21 [Compound I-029] | 3.90^[a] | –
COCCNC(=O)c1cn2cc(-c3noc(C(F)(F)F)n3)ccc2n1 [Compound I-037] | 2.18^[a] | –
Cn1cnc2cc(-c3noc(C(F)(F)F)n3)ccc21 [Compound I-003] | 1.70^[a] | –
ON=C1CCCc2cc(-c3noc(C(F)(F)F)n3)ccc21 [Compound I-001] | 3.62^[a] | –
COC(=O)N1CCCc2cc(-c3noc(C(F)(F)F)n3)ccc21 [Compound I-028] | 4.03^[a] | –
CC(C)(C)OC(=O)N1CCc2cc(-c3noc(C(F)(F)F)n3)ccc2C1 [Compound I-038] | 4.93^[a] | –
Fc1cc2nn(Cc3ccccc3)cc2cc1-c1noc(C(F)(F)Cl)n1 [Compound I-066] | 4.11^[a] | –
COCCn1ncc2ccc(-c3noc(C(F)(F)F)n3)cc21 [Compound I-016] | 3.35^[a] | –
FC(F)(Cl)c1nc(-c2ccc3[nH]ncc3c2)no1 [Compound I-063] | 2.84^[a] | –
COC(=O)N1CCCc2cc(-c3noc(C(F)(F)Cl)n3)ccc21 [Compound I-027] | 4.27^[a] | –
FC(F)(F)c1nc(-c2ccc3c(cnn3Cc3ccccc3)c2)no1 [Compound I-009] | 4.39^[a] | –
FC(F)(F)c1nc(-c2ccc3ncn(Cc4ccccc4)c3c2)no1 [Compound I-059] | 3.06^[a] | –
FC(F)(F)c1nc(-c2ccc3cn(Cc4ccccc4)nc3c2)no1 [Compound I-008] | 4.03^[a] | –
Fc1cc2c(cnn2Cc2ccccc2)cc1-c1noc(C(F)(F)F)n1 [Compound I-064] | 4.28^[a] | –
COC(=O)N1CCc2cc(-c3noc(C(F)(F)F)n3)ccc2C1 [Compound I-048] | 3.63^[a] | –
Cn1cnc2cc(-c3noc(C(F)(F)Cl)n3)ccc21 [Compound I-060] | 1.86^[a] | –
CONC1CCCc2cc(-c3noc(C(F)(F)F)n3)ccc21 (centres unmarked) [Compound I-018, O-Methyl-N-{6-[5-(trifluoromethyl)-1,2,4-oxadiazol-3-yl]-1,2,3,4-tetrahydronaphthalen-1-yl}hydroxylamine] | – | chromatographic logP [1, 3]: 4.08
COC(=O)Nc1cc2cc(-c3noc(C(F)(F)F)n3)ccc2cn1 [Compound I-051] | 3.45^[a] | –

Structure (SMILES) | LogP [1] | also measured
COCCC(=O)N(OC)C1CCCc2cc(-c3noc(C(F)(F)F)n3)ccc21 (centres unmarked) [Compound I-021] | 3.96^[a] | –
CC(=O)N1CCc2cc(-c3noc(C(F)(F)F)n3)ccc2C1 [Compound I-049] | 2.71^[a] | –
CC(=O)Nc1ccc(-c2noc(C(F)(F)F)n2)c2c1CCC2 [Compound I-056] | 3.28^[a] | –
Fc1cc2nn(Cc3ccccc3)cc2cc1-c1noc(C(F)(F)F)n1 [Compound I-065] | 3.92^[a] | –
CN(C)C(=O)Oc1ccc2cc(-c3noc(C(F)(F)F)n3)ccc2c1 [Compound I-034] | 4.18^[a] | –
CCN(OC)C1CCCc2cc(-c3noc(C(F)(F)F)n3)ccc21 (centres unmarked) [Compound I-023, N-Ethyl-O-methyl-N-{6-[5-(trifluoromethyl)-1,2,4-oxadiazol-3-yl]-1,2,3,4-tetrahydronaphthalen-1-yl}hydroxylamine] | – | chromatographic logP [1, 3]: 6.04
FC(F)(Cl)c1nc(-c2ccc3cc[nH]c3c2)no1 [Compound I-046] | 3.68^[a] | –
COC(=O)N1CCc2ccc(-c3noc(C(F)(F)F)n3)cc2C1 [Compound I-032] | 3.59^[a] | –
FC(F)(F)c1nc(-c2ccc3ncsc3c2)no1 [Compound I-043] | 3.21^[a] | –
FC(F)(F)c1nc(-c2cc(Cl)c3nn[nH]c3c2)no1 [Compound I-044] | 2.78^[a] | –
COCCn1ncc2cc(-c3noc(C(F)(F)F)n3)ccc21 [Compound I-013, 1-(2-Methoxyethyl)-5-[5-(trifluoromethyl)-1,2,4-oxadiazol-3-yl]-1H-indazole] | – | chromatographic logP [1, 3]: 3.31; inhibition at 30 ppm (Phakosporra pachirrhizi): 80 to 89%; inhibition at 20 ppm [2]: 80 to 89%
CC(=O)Nc1cc2cc(-c3noc(C(F)(F)F)n3)ccc2cn1 [Compound I-054] | 2.90^[a] | –
FC(F)(F)c1nc(-c2ccc3nn(Cc4ccccc4)cc3c2)no1 [Compound I-012] | 4.03^[a] | –
O=C(c1cnc2ccc(-c3noc(C(F)(F)F)n3)cn12)C(F)(F)F [Compound I-035] | 3.41^[a] | –
COCCn1cc2ccc(-c3noc(C(F)(F)F)n3)cc2n1 [Compound I-017] | 3.00^[a] | –
CON(C(=O)c1ccccc1)C1CCCc2cc(-c3noc(C(F)(F)F)n3)ccc21 (centres unmarked) [Compound I-022] | 4.72^[a] | –
FC(F)(Cl)c1nc(-c2ccc3ncn(Cc4ccccc4)c3c2)no1 [Compound I-058] | 3.23^[a] | –
O=C(C1CC1)N1CCc2cc(-c3noc(C(F)(F)F)n3)ccc2C1 [Compound I-047] | 3.31^[a] | –
CCC(=O)N1CCc2ccc(-c3noc(C(F)(F)Cl)n3)cc2C1 [Compound I-033] | 3.31^[a] | –
CCn1cc2cc(-c3noc(C(F)(F)F)n3)ccc2n1 [Compound I-010] | 3.15^[a] | –

Reference: patent US20210009541A1, “FUNGICIDAL OXADIAZOLES” (Bayer Aktiengesellschaft, priority 2018, published 2021)
